Measurements: PubChem BioAssay AID2060508 (Molecular Pharmacology Branch, DTP, NCI, 2025)

Test system: 454973-116-R2-J3-PDC spheroids, viability, % test/control
Test: Anticancer human tumor 454973-116-R2-J3-PDC patient-derived pancreatic carcinoma cell line growth inhibition [GQUAD]
Details: spheroids with HUVEC and MSC; for IC50: curve of first compound; for viability, T/C: stronger effect = lower value
Excerpt: DNA G-quadruplex Stabilizer Agents in Combinations in Complex Spheroids
A high-throughput screen of multi-cell type tumor spheroids was designed to identify active combinations of DNA G-quadruplex stabilizer agents and targeted small molecules. Complex spheroids include a stromal component modeled by human endothelial cells (HUVEC) and fibroblasts modeled by human mesenchymal stem cells (MSCs). The concentration ranges selected for each drug and investigational agent were based upon clinically achievable concentrations if the clinical Cmax of the agent was known.
Compounds. The drugs and investigational agents: pidnarulex (CX-5461; NSC782164), APTO-253 (NSC789042), BRACO-19 (NSC847499), peposertib (NSC802822), ceralasertib (NSC780249), elimusertib (NSC800525), camonsertib (NSC841442), AZD-1390 (NSC803789), olaparib (NSC753686), talazoparib (NSC767125), ART-558 (NSC835418), sotorasib (NSC818433), MRTX-1133 (NSC836407), SN-38 (NSC673596), topotecan (NSC609699), etoposide (NSC141540), doxorubicin (NSC123127), gemcitabine (NSC613327), 5-fluorouracil (NSC19893), paclitaxel (NSC125973), vemurafenib (NSC761431), panobinostat (NSC761190), R-306465 (JNJ-16241199; NSC773264), adavosertib (NSC754352), TP-3654 (NSC805149), carboplatin (NSC241240), KSQ-4279 (NSC840948), and staurosporine (NSC755774) were obtained from the National Cancer Institute (NCI) Developmental Therapeutics Program Chemical Repository (34). The FDA-approved anticancer drug set is available from the NCI Developmental Therapeutics Program. […] The stock solutions were prepared in dimethyl sulfoxide (DMSO, Sigma-Aldrich, St. Louis, MO, cat. D2650) at 800-fold the tested concentration and stored at -70 degrees C prior to their use. All drugs and investigational agents were tested over a range starting from a high concentration at or near the clinical Cmax and decreasing in half-log increments. If the clinical Cmax for an agent had not been determined, the highest concentration tested was 10 microM.
2.3 Cell Culture. All cells were maintained in an incubator at 37 degrees C and 5% CO2 with 95% humidity. The PDC lines were cultured according to standard operating procedures established by the NCI PDMR. All PDCs were thawed and cultured in Matrigel-coated flasks prepared with a working solution of 1X Ham's F-12 nutrient mix, without supplementation (Invitrogen, cat. 11765054), 100 U/mL penicillin-streptomycin (Invitrogen, cat. 15140122), and 2.5% Matrigel (Corning Inc., cat. 354248) for the first three passages. The 857933-349-R-J2-PDC line was cultured in 6C/Colon 1B media, which includes advanced DMEM/F-12 (Thermo Fisher Scientific, cat. 12634028), 10 mM HEPES (Thermo Fisher Scientific, cat. 15630080), 1X GlutaMAX supplement (Thermo Fisher Scientific, cat. 35050061), 0.1 mg/mL primocin (InvivoGen, cat. ant-pm-2), 10% defined fetal bovine serum, heat inactivated (HyClone Laboratories Inc., cat. SH30070.03HI), 50% L-WRN conditioned media (ATCC, cat. CRL-3276), 1.25 mM N-Acetyl-L-cysteine (Sigma-Aldrich, cat. A9165), 10 mM nicotinamide (Sigma-Aldrich, cat. N0636), 1X B-27 supplement (Thermo Fisher Scientific, cat. 17504044), 1X N-2 supplement (Thermo Fisher Scientific, cat. 17502048), 10 microM Y-27632 dihydrochloride (Tocris Bioscience, cat. 1254), and 50 ng/mL human EGF recombinant protein (Thermo Fisher Scientific, cat. PHG0311). The 485176-168-R4-J1-PDC line was cultured in Panc media, which includes all 6C/Colon 1B media components plus 100 ng/mL human FGF-10 (Thermo Fisher Scientific, cat. 100-26), 500 nM SB-431542 (Selleckchem, cat. S1067), and gastrin (Tocris, cat. 3006).
[…]

[1] = second compound 0.0316 µM, first compound 0.0316 µM
[2] = second compound 0.0316 µM, first compound 0.316 µM
[3] = second compound 0.1 µM, first compound 0.0316 µM
[4] = second compound 0.1 µM, first compound 0.316 µM
[5] = second compound 0.316 µM, first compound 0.0316 µM
[6] = second compound 0.316 µM, first compound 0.316 µM
[7] = second compound 1 µM, first compound 0.0316 µM
[8] = second compound 1 µM, first compound 0.316 µM
[9] = second compound 3.16 µM, first compound 0.0316 µM
[10] = second compound 3.16 µM, first compound 0.316 µM
[11] = second compound 10 µM, first compound 0.0316 µM
[12] = second compound 10 µM, first compound 0.316 µM
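Note: spheroids exposed to compounds for seven days.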

## CCCS(=O)(=O)Nc1ccc(F)c(C(=O)c2c[nH]c3ncc(-c4ccc(Cl)cc4)cc23)c1F + CN(C)c1ccc(Nc2c3ccc(NC(=O)CCN4CCCC4)cc3nc3cc(NC(=O)CCN4CCCC4)ccc23)cc1
Second compound 0.0316 µM
  IC50: 5.41 µM
Second compound 0.1 µM
  IC50: 6.13 µM
Second compound 0.316 µM
  IC50: 6.15 µM
Second compound 1 µM
  IC50: 5.52 µM
Second compound 3.16 µM
  IC50: 5.44 µM
Second compound 10 µM
  IC50: 3.72 µM
[1]
  viability, T/C: 108%
Second compound 0.0316 µM, first compound 0.1 µM
  viability, T/C: 104%
[2]
  viability, T/C: 114%
Second compound 0.0316 µM, first compound 1 µM
  viability, T/C: 110%
Second compound 0.0316 µM, first compound 3.16 µM
  viability, T/C: 85%
Second compound 0.0316 µM, first compound 10 µM
  viability, T/C: 10%
[3]
  viability, T/C: 103%
Second compound 0.1 µM, first compound 0.1 µM
  viability, T/C: 98%
[4]
  viability, T/C: 103%
Second compound 0.1 µM, first compound 1 µM
  viability, T/C: 123%
Second compound 0.1 µM, first compound 3.16 µM
  viability, T/C: 106%
Second compound 0.1 µM, first compound 10 µM
  viability, T/C: 8.55%
[5]
  viability, T/C: 98.5%
Second compound 0.316 µM, first compound 0.1 µM
  viability, T/C: 101%
[6]
  viability, T/C: 108%
Second compound 0.316 µM, first compound 1 µM
  viability, T/C: 105%
Second compound 0.316 µM, first compound 3.16 µM
  viability, T/C: 102%
Second compound 0.316 µM, first compound 10 µM
  viability, T/C: 11.7%
[7]
  viability, T/C: 88.1%
Second compound 1 µM, first compound 0.1 µM
  viability, T/C: 94.3%
[8]
  viability, T/C: 104%
Second compound 1 µM, first compound 1 µM
  viability, T/C: 87.9%
Second compound 1 µM, first compound 3.16 µM
  viability, T/C: 85.1%
Second compound 1 µM, first compound 10 µM
  viability, T/C: 12.6%
[9]
  viability, T/C: 90%
Second compound 3.16 µM, first compound 0.1 µM
  viability, T/C: 74.1%
[10]
  viability, T/C: 101%
Second compound 3.16 µM, first compound 1 µM
  viability, T/C: 89.5%
Second compound 3.16 µM, first compound 3.16 µM
  viability, T/C: 82.4%
Second compound 3.16 µM, first compound 10 µM
  viability, T/C: 13.5%
[11]
  viability, T/C: 68.3%
Second compound 10 µM, first compound 0.1 µM
  viability, T/C: 70%
[12]
  viability, T/C: 80.3%
Second compound 10 µM, first compound 1 µM
  viability, T/C: 67.2%
Second compound 10 µM, first compound 3.16 µM
  viability, T/C: 57.9%
Second compound 10 µM, first compound 10 µM
  viability, T/C: 4.49%

## Cc1[nH]c2ccccc2c1CCNCc1ccc(/C=C/C(=O)NO)cc1 + CN(C)c1ccc(Nc2c3ccc(NC(=O)CCN4CCCC4)cc3nc3cc(NC(=O)CCN4CCCC4)ccc23)cc1
Second compound 0.0316 µM
  IC50: 0.0725 µM
Second compound 0.1 µM
  IC50: 0.0668 µM
Second compound 0.316 µM
  IC50: 0.0563 µM
Second compound 1 µM
  IC50: 0.0488 µM
Second compound 3.16 µM
  IC50: 0.0532 µM
Second compound 10 µM
  IC50: 0.0354 µM
Second compound 0.0316 µM, first compound 0.000999 µM
  viability, T/C: 104%
Second compound 0.0316 µM, first compound 0.00316 µM
  viability, T/C: 102%
Second compound 0.0316 µM, first compound 0.00999 µM
  viability, T/C: 106%
[1]
  viability, T/C: 83.2%
Second compound 0.0316 µM, first compound 0.0999 µM
  viability, T/C: 37.1%
[2]
  viability, T/C: 6.62%
Second compound 0.1 µM, first compound 0.000999 µM
  viability, T/C: 107%
Second compound 0.1 µM, first compound 0.00316 µM
  viability, T/C: 96.7%
Second compound 0.1 µM, first compound 0.00999 µM
  viability, T/C: 92.8%
[3]
  viability, T/C: 89.5%
Second compound 0.1 µM, first compound 0.0999 µM
  viability, T/C: 28.9%
[4]
  viability, T/C: 6.22%
Second compound 0.316 µM, first compound 0.000999 µM
  viability, T/C: 93.8%
Second compound 0.316 µM, first compound 0.00316 µM
  viability, T/C: 93.3%
Second compound 0.316 µM, first compound 0.00999 µM
  viability, T/C: 99.2%
[5]
  viability, T/C: 68.7%
Second compound 0.316 µM, first compound 0.0999 µM
  viability, T/C: 30.2%
[6]
  viability, T/C: 6.88%
Second compound 1 µM, first compound 0.000999 µM
  viability, T/C: 96.8%
Second compound 1 µM, first compound 0.00316 µM
  viability, T/C: 92.5%
Second compound 1 µM, first compound 0.00999 µM
  viability, T/C: 92.3%
[7]
  viability, T/C: 65.1%
Second compound 1 µM, first compound 0.0999 µM
  viability, T/C: 24.5%
[8]
  viability, T/C: 8.83%
Second compound 3.16 µM, first compound 0.000999 µM
  viability, T/C: 90.1%
Second compound 3.16 µM, first compound 0.00316 µM
  viability, T/C: 86.7%
Second compound 3.16 µM, first compound 0.00999 µM
  viability, T/C: 82.1%
[9]
  viability, T/C: 70.3%
Second compound 3.16 µM, first compound 0.0999 µM
  viability, T/C: 26.2%
[10]
  viability, T/C: 7.17%
Second compound 10 µM, first compound 0.000999 µM
  viability, T/C: 68%
Second compound 10 µM, first compound 0.00316 µM
  viability, T/C: 70.9%
Second compound 10 µM, first compound 0.00999 µM
  viability, T/C: 65.6%
[11]
  viability, T/C: 51.8%
Second compound 10 µM, first compound 0.0999 µM
  viability, T/C: 27.1%
[12]
  viability, T/C: 4.66%
